Source: patent publication US4973465A, “Microcrystals comprising an active substance having an affinity for phospholipids, and at least one phospholipid, process of preparation” (priority 1986, dated 1990)
Values after ≈ are worked out from the molar mass of the structure shown.

Tested on: infected macrophages
Experiment: in vitro activity relative to infected macrophages, microcrystals containing cholesterol
Format: cell-based

Structure (SMILES): C[C@@H]1[C@H](O)[C@@H](C)/C=C/C=C/C=C/C=C/C=C/C=C/C=C/[C@H](O[C@@H]2O[C@H](C)[C@@H](O)[C@H](N)[C@@H]2O)C[C@@H]2O[C@](O)(C[C@@H](O)C[C@@H](O)[C@H](O)CC[C@@H](O)C[C@@H](O)CC(=O)O[C@H]1C)C[C@H](O)[C@H]2C(=O)O [control amphotericin B, amphotericin B]
- MIC on infected macrophages: 0.4 µM (≈ 0.37 µg/mL)
